# Structures can show the parent of a compound that is named as a salt. Where two headings read alike, the source gives them in different places.
# How the values were obtained:
# [1] = system: dopaminergic (D2) receptors; conditions: state of the art; cited from earlier work
# [2] = state of the art; cited from earlier work
# [3] = system: rats; conditions: state of the art; cited from earlier work
# [4] = target: T1, sigma receptors (Rattus norvegicus, UniProt Q9R0C9); assay: Sigma binding, SKF 10,047/rat brain membranes (Table 1.B); conditions: rat brain membranes
# T1 construct: (SKF 10,047/rat brain membranes); from tissue; host or cells: rat brain membranes
# Procedure: (§1) Tests of binding to phencyclidine and dopamine D2 receptors were carried out to study the possible undesirable interactions of the compounds of the invention with these receptors. The ligands used are [^3 H]-TCP for phencyclidine and [^3 H]spiroperidol for dopamine.
# (§2) The binding experiments are carried out with the sigma ligands (+)-[^3 H]-SKF10,047 and [^3 H]-TCP according to the technique described by Largent B. L. et al. in J. Pharmacol. Exp. Ther. 238, 1986, p 739-748, the principle of which is to place in competition the respective affinities of the product under study and that of a radioactive characteristic ligand for sigma receptors.
# (§3) The technique consists in incubating solutions of suitable concentrations of the test products with standard samples of membranes loaded with the labeled ligand, and then in determining the radioactivity of the solution after filtration.
# (§4) The results are processed so as to calculate the IC50 of the product under study, which represents the nanomolar concentration of solution capable of inhibiting 50% of the binding of the tritiated ligand to the sigma receptors of the membranes used.
# (§5) The SKF 10,047 binding tests are performed with guinea pig or rat brain membranes, those with DTG and TCP are performed with rat brain membranes; the D2 binding tests are performed with guinea pig brain membranes.
# [5] = target: T2, sigma receptors (Cavia porcellus, UniProt Q60492); assay: Sigma binding test with (+)-[3H]-SKF10,047, guinea pig brain membranes (Table 1.A); conditions: read-out: SKF10047 guinea pig IC50
# T2 construct: from tissue; host or cells: guinea pig brain membranes
# Procedure: as §1, §2, §3, §4, §5
# [6] = target: sigma receptors; assay: Sigma binding test with [3H]-DTG (Table 1.A); conditions: guinea pig
# Procedure: as §1
# (§6) Binding with the ligand [^3 H]-DTG is carried out according to the technique of Weber, E. M. et al., 1986, Proc. Natl. Acad. Sci., 83:8784-8788, and binding with the ligand [^3 H]spiroperidol is carried out according to the technique of Fields, J. Z., Reisine, R. D. and Yamamura, H. 1., Brain Res., 136,578 (1977).
# as §3, §4, §5
# [7] = target: phencyclidine (PCP) receptors; assay: PCP receptor binding test with [3H]-TCP (Table 1.A); conditions: guinea pig
# Procedure: as §1, §2, §3, §4, §5
# [8] = target: T3, dopamine D2 receptors (Rattus norvegicus, UniProt P61169); assay: Dopamine D2 binding test with [3H]spiroperidol (Table 1.A)
# T3 construct: from tissue; guinea pig by b443
# Procedure: as §1, §6, §3, §4, §5
# [9] = system: convulsions induced by electric shocks in rats; assay: Protection against convulsions induced by electric shocks in rats; type: in vivo, rat (male Sprague Dawley); conditions: sc, 0.5 h; rat; subcutaneous; shock 30 minutes after injection; protection in 50% of the animals
# Procedure: (§7) Moreover, "in vivo" tests enabled the capacity of the compounds of the invention (I) to inhibit convulsions induced by electric shocks in rats, and also their capacity to inhibit gastroduodenal ulcers caused by administration of cysteamine, to be detected.
# a) Convulsions in rats: electric shock
# The psychotropic properties of the compounds (I) were determined by the protection against convulsions induced by electric shocks in rats.
# The emission of an electric shock causes a convulsive state in the animal, characterized by the convulsive extension of front and rear legs.
# In practice, the study is carried out on groups of 10 male Sprague Dawley rats weighing approximately 100 grams, to which the product under study is administered subcutaneously in aqueous solution on the basis of 0.5 ml per 100 grams of the animal's body weight.
# An electric shock is then produced 30 minutes after the injection by means of a UGO BASILE ECT UNIT 7801 electric shock apparatus (APELEX): frequency 50 cps/sec, pulse width 0.6 ms, shock duration 1 sec, intensity 90 mA. […] Each animal then receives a score, which is equal to 1 for the presence of tonic convulsions and zero for the absence of tonic convulsions. […] The results are compared statistically between the control group and the treated group by the test of Fisher R. A. and Yates F. (Biometrika, 1948, 35-149) and the ED50 (dose of the test compound giving rise to protection in 50% of the animals) is calculated by the method of Litchfield J. T. and Wilcoxon F. (J. Pharmacol. Exp. Therap., 1949, 96-99).
# [10] = system: cysteamine-induced ulcers; assay: Inhibition of cysteamine-induced gastroduodenal ulcers in rats; type: in vivo, rat (male Sprague Dawley); conditions: rat, 50% inhibition of ulceration, read-out: Cysteamine ulcer ED50
# Text: as §7
# b) Cysteamine-induced ulcer
# The activity of the compounds of the invention with respect to the gastrointestinal tract was shown in rats by their capacity to inhibit gastroduodenal ulcers caused by administration of cysteamine. (Robert and al., Digestion, 1974, 11, 199-211).
# In practice, the study is carried out according to the method described by Selye, H. and Szabo, S., Nature, 1973, 244:458-459 on groups of male Sprague Dawley rats weighing 200 g on average, to which a solution of cysteamine hydrochloride is administered by subcutaneous injection on the basis of 400 mg/kg, […] the ulcerogenic agent. Eighteen hours later, the rats are sacrificed by elongation, and the stomach and duodenum are removed, rinsed with physiological solution and pinned onto a card. The presence of ulcers of the antropyloroduodenal region is looked for, and their area, expressed in mm^2, is evaluated by multiplying the two principal perpendicular axes of the lesion. Statistical analysis of the results is carried out using Student's test for the ulcerated areas in comparison with a control group. The results are presented in Table 2, and expressed as an ED50 of ulceration scores, which are the effective doses of product in (mg/kg) for a 50% inhibition of the cysteamine-induced ulcers.
# [11] = Stability remark on isolated product; type: physicochemical; conditions: free base, after Stage 3
# [12] = system: dopaminergic D2 receptors; conditions: state of the art; cited from earlier work
# [13] = system: phencyclidine (PCP) receptors; conditions: state of the art; cited from earlier work
# T2 sequence (Q60492 whole entry): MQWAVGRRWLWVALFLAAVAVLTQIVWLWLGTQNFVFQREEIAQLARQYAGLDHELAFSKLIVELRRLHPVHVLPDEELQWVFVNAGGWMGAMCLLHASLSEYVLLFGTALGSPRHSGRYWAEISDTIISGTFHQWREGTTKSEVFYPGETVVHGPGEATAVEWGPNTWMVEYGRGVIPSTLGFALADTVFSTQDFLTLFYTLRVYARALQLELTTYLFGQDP
# T3 sequence (P61169 whole entry): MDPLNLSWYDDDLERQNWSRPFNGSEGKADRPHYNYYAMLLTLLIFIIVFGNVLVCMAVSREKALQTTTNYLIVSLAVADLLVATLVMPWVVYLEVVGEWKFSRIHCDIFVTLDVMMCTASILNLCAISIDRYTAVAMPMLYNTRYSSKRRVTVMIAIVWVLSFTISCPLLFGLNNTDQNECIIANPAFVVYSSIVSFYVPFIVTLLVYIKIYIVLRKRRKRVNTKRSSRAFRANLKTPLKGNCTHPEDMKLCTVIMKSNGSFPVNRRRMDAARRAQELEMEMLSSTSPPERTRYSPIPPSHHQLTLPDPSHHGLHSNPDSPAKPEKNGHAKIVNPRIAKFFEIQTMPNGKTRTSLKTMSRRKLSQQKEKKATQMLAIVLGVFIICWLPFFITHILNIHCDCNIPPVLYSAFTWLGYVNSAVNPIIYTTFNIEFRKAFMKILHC
# T1 sequence (Q9R0C9 whole entry): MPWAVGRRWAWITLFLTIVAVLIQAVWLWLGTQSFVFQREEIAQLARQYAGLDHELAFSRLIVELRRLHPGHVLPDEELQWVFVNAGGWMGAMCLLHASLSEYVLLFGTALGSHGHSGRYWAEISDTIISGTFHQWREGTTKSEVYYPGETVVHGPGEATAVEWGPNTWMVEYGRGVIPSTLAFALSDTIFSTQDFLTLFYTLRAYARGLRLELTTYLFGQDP
compound,measurement,setting,value
"CCCN1CCC[C@H](c2cccc(O)c2)C1 [(+)-3-PPP, (+)-3-(3-hydroxyphenyl)-N-(1-propyl)piperidine]",affinity for dopaminergic (D2) receptors,[1],strong affinity for dopaminergic (D2) receptors
"Cc1ccccc1NC(=N)Nc1ccccc1C [DTG, 1,3-di-o-tolylguanidine]",crossing the blood-brain barrier,[2],difficulty in crossing the blood-brain barrier
same,symptoms in rats,[3],causes symptoms in rats similar to those of PCP
"CN(CCC1Cc2ccccc2C1=O)CC1CC1 (centres unmarked) [EXAMPLE 1, 2-[2-[(N-Cyclopropylmethyl-N-Methyl)Amino]Ethyl]-1-Oxo-1,2-Dihydroindene Hydrochloride]",IC50,[4],10.7 nM
"CN(CCC1CCc2ccccc2C1=O)CC1CC1 (centres unmarked) [EXAMPLE 2, 2-[2-[(N-Cyclopropylmethyl-N-Methyl)Amino]Ethyl]-1-Oxo-1,2,3,4-Tetrahydronaphthalene Hydrochloride]",IC50,[5],12 nM
same,IC50,[4],19.4 nM
same,IC50,[6],52 nM
same,IC50,[7],> 10000 nM
same,IC50,[8],> 10000 nM
same,ED50,[9],0.1 mg/kg
"CN(CCC1CCc2ccccc2C1=O)CC1CCC1 (centres unmarked) [EXAMPLE 3, 2-[2-[(N-cyclobutylmethyl-N-methyl)amino]ethyl]-1-oxo-1,2,3,4-tetrahydronaphthalene]",IC50,[5],5.24 nM
same,IC50,[4],11.1 nM
same,IC50,[7],> 10000 nM
same,IC50,[8],1170 nM
same,ED50,[9],0.9 mg/kg
same,ED50,[10]; intraperitoneal route (ip),5.7 mg/kg
same,ED50,[10]; oral route (po),8.6 mg/kg
"CN(CCC1CC1)CCC1CCc2ccccc2C1=O (centres unmarked) [EXAMPLE 4, 2-[2-[(N-Cyclopropylethyl-N-Methyl)Amino]Ethyl]-1-oxo-1,2,3,4-Tetrahydronaphthalene Hydrochloride]",IC50,[5],2.83 nM
same,IC50,[4],10.6 nM
same,IC50,[6],56 nM
same,IC50,[7],> 10000 nM
same,IC50,[8],1910 nM
same,ED50,[9],1 mg/kg
same,ED50,[10]; oral route (po),15.6 mg/kg
"CN(CCC1CCc2ccccc2C1=O)CC1CCCCC1 (centres unmarked) [EXAMPLE 5, 2-[2-[(N-Cyclohexylmethyl-N-Methyl)Amino]-Ethyl]-1-Oxo-1,2,3,4-Tetrahydronaphthalene Hydrochloride]",IC50,[4],8.2 nM
"COc1ccc2c(c1)CCC(CCN(C)CC1CCCCC1)C2=O (centres unmarked) [EXAMPLE 6, 2-[2-[(N-Cyclohexylmethyl-N-Methyl)Amino]-Ethyl]6-Methoxy-1-oxo-1,2,3,4-Tetrahydronaphthalene Hydrochloride]",IC50,[4],8 nM
"O=C1c2ccccc2CCC1CCNC1CC1 (centres unmarked) [EXAMPLE 7, 2-[2-(N-Cyclopropylamino)Ethyl]-1-Oxo-1,2,3,4-Tetrahydronaphthalene]",stability,[11],unstable
"CCCN(CCC1CCc2ccccc2C1=O)CC1CC1 (centres unmarked) [EXAMPLE 9, 2-[2-[(N-cyclopropylmethyl-N-propyl)amino]ethyl]-1-oxo-1,2,3,4-tetrahydronaphthalene]",IC50,[4],10.4 nM
"CN(CCC1CCCc2ccccc2C1=O)CC1CC1 (centres unmarked) [EXAMPLE 10, 2-[2-[(N-Cyclopropylmethyl-N-Methyl)Amino]Ethyl]-1-Benzosuberone Hydrochloride]",IC50,[4],5.7 nM
same,ED50,[9],1.6 mg/kg
"CN(CCC1CCCc2ccccc2C1=O)CC1CCCCC1 (centres unmarked) [EXAMPLE 11, 2-[2-[(N-Cyclohexylmethyl-N-Methyl)Amino]-Ethyl]-1-Benzosuberone Hydrochloride]",IC50,[4],6.6 nM
"CN(CCC1CCc2ccccc2C12OCCO2)CC1CC1 (centres unmarked) [EXAMPLE 12, 2-[2-[(N-cyclopropylmethyl-N-methyl)amino]ethyl]-1-[spiro(cyclodioxyethyl)]-1,2,3,4-tetrahydro naphhtalene]",IC50,[4],30.5 nM
same,ED50,[9],1.7 mg/kg
same,ED50,[10]; intraperitoneal route (ip),11.6 mg/kg
"CN(CCC1CCc2ccccc2C1=NO)CC1CCC1 (centres unmarked) [EXAMPLE 13, 2-[2-[(N-Cyclobutylmethyl-N-Methyl)Amino]Ethyl]-1-Hydroxyimino-1,2,3,4Tetrahydronaphthalene]",IC50,[4],7.7 nM
"CN(CCC1COc2ccccc2C1=O)CC1CC1 (centres unmarked) [EXAMPLE 14, 3-[2-[(N-Cyclopropylmethyl-N-Methyl)Amino]-Ethyl]4-Chromanone Hydrchloride]",IC50,[4],13.7 nM
same,ED50,[9],3.5 mg/kg
"CN(CCC1COc2ccccc2C1=O)CC1CCCCC1 (centres unmarked) [EXAMPLE 15, 3-[2-[(N-cyclohexylmethyl-N-methyl)amino]ethyl]-4-chromanone]",IC50,[4],5.7 nM
"CN(CCC1COc2ccc(F)cc2C1=O)CC1CCCCC1 (centres unmarked) [EXAMPLE 16, 3-[2-[(N-Cyclohexylmethyl-N-Methyl)Amino]-Ethyl]-6-Fluoro-4-Chromanone Hydrochloride]",IC50,[4],6.2 nM
"C=CCN(C)CCC1CCc2ccccc2C1=O (centres unmarked) [EXAMPLE 17, 2-[2-[(N-Allyl-N-Methyl)Amino]Ethyl]-1-Oxo-1,2,3,4-Tetrahydronaphthalene Hydrochloride]",IC50,[4],13.3 nM
"O=C(CCCN1CCC(O)(c2ccc(Cl)cc2)CC1)c1ccc(F)cc1 [Haloperidol, 4-[4-(p-chlorophenyl)-4-hydroxypiperidino]-4'-fluorobutyrophenone]",affinity for dopaminergic (D2) receptors,[1],strong affinity for dopaminergic D2 receptors
same,extrapyramidal disorders,[12],can induce extrapyramidal disorders of the cataleptic type
"C=CCN1CCC2(C)c3cc(O)ccc3CC1C2C (centres unmarked) [SKF 10047, N-allylnormetazocine]",affinity for phencyclidine (PCP) receptors,[13],strong affinity for phencyclidine (PCP) receptors
C[C@H]1[C@H]2Cc3ccc(O)cc3[C@]1(C)CCN2CC1CC1 [cyclazocine],affinity for phencyclidine (PCP) receptors,[13],strong affinity for phencyclidine (PCP) receptors

# — patent US5326784A, “Cycloalkylalkylamines which are sigma-receptor ligands and their application in therapy” (Institut de Recherche Jouveinal, priority 1992, dated 1994)
